PMC6917776, “Discovery of a chemical probe for PRDM9” (Nature Communications, 2019)
Read-outs that look alike come from different tables or passages of the source.

Experiments:
Assay type in all cases: biochemical
SETDB1 = target: T1, SETDB1 (Homo sapiens, UniProt Q15047); assay: Methyltransferase selectivity assay (SPA)
T1 construct: purchased Structural Genomics Consortium (SGC Toronto) in-house methyltransferase panel

DOT1L = target: T2, DOT1L (Homo sapiens, UniProt Q8TEK3); assay: Methyltransferase selectivity assay (filter-based, nucleosome substrate)
T2 construct: purchased Structural Genomics Consortium (SGC Toronto) in-house methyltransferase panel
T2 sequence (Q8TEK3 whole entry): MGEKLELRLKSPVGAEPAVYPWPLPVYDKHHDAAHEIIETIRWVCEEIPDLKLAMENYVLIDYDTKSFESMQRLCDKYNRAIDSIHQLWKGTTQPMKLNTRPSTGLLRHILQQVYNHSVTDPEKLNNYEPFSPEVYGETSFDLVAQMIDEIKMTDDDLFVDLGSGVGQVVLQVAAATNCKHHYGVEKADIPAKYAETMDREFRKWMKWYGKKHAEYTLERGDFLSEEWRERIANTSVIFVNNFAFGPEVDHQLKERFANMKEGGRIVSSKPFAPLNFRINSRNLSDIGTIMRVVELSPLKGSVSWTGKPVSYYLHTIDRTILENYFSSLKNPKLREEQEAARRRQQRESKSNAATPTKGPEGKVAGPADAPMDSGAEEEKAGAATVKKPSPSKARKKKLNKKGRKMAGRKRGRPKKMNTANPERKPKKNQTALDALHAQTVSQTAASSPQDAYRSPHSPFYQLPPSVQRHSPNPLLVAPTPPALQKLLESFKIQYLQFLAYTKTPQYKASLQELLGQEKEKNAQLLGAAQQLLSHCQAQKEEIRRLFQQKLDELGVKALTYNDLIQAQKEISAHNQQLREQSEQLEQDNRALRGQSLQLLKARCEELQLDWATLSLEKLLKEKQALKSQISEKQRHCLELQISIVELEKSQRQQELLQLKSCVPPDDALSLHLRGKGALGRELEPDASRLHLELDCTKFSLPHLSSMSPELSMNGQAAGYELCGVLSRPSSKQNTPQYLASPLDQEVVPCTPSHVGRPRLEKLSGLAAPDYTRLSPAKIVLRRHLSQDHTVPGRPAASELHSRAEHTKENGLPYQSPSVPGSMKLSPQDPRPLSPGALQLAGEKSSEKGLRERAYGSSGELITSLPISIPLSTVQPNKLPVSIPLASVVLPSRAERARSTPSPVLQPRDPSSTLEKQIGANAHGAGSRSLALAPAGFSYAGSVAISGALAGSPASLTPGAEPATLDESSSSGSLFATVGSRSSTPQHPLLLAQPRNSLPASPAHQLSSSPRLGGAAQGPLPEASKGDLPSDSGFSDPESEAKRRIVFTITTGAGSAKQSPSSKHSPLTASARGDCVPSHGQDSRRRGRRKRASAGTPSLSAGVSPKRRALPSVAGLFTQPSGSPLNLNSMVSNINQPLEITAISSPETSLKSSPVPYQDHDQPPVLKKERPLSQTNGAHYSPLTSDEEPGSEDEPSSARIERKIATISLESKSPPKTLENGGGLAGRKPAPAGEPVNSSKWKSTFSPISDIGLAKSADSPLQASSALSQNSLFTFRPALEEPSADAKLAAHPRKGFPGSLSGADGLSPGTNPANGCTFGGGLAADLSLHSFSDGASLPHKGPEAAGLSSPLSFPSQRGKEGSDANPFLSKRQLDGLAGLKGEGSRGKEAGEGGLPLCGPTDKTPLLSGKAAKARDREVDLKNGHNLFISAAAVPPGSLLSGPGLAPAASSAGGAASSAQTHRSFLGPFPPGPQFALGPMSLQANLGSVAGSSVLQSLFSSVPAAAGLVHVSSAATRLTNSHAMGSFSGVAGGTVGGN
Procedure: (§1) Selectivity against methyltransferases were determined as described previously. Details of the assays are described in the supplementary methods.
(§2) Methyltransferase selectivity assay1
(§3) The effect of chemical probes and negative controls on the methyltransferase activities of protein, DNA and RNA methyltransferases was tested by radiometric assays using 3H-SAM. […]
(§4) The CPM in the absence of compound or enzyme was defined as 100% activity and background (0%), respectively, for each dataset. […]
(§5) For proteins which were tested with nucleosome as substrate such as DOT1L, NSD1, NSD2, NSD3, and ASH1L, or unbiotinylated Poly(2′-deoxyinosinic-2′-deoxycytidylic acid) (Cat# 81349-500UG, Sigma Aldrich) such as DNMT3A/3L, and DNMT3B/3L, a filter-based assay was used. In this assay, a trichloroacetic acid (TCA) protein precipitation protocol was employed. A 10 µL reaction mixture was incubated at 23°C for 1 h, followed by addition of 50 µL of 10% TCA. The mixture was transferred to filter plates (Millipore, Billerica, MA, USA) that were centrifuged at 2000 rpm (Allegra X-15R; Beckman Coulter, Brea, CA, USA) for 2 min. Samples were washed twice with 10% TCA and once with ethanol (180 µL), and centrifuged. After drying, 100 µL MicroScint-O (Perkin Elmer) was added to each well and the plates were centrifuged to remove the liquid. A 70 µL volume of MicroScint-O was added and the CPM was measured with a TopCount plate reader.

NSD3 = target: T3, NSD3 (Homo sapiens, UniProt Q9BZ95); assay: as above; conditions: for activity at 1 µM: 1µM compound; for activity at 10 µM / Activity %: 10µM compound; for Activity %: Exp1, Exp2, 10 µM
T3 construct: purchased Structural Genomics Consortium (SGC Toronto) in-house methyltransferase panel
T3 sequence (Q9BZ95 1-1437): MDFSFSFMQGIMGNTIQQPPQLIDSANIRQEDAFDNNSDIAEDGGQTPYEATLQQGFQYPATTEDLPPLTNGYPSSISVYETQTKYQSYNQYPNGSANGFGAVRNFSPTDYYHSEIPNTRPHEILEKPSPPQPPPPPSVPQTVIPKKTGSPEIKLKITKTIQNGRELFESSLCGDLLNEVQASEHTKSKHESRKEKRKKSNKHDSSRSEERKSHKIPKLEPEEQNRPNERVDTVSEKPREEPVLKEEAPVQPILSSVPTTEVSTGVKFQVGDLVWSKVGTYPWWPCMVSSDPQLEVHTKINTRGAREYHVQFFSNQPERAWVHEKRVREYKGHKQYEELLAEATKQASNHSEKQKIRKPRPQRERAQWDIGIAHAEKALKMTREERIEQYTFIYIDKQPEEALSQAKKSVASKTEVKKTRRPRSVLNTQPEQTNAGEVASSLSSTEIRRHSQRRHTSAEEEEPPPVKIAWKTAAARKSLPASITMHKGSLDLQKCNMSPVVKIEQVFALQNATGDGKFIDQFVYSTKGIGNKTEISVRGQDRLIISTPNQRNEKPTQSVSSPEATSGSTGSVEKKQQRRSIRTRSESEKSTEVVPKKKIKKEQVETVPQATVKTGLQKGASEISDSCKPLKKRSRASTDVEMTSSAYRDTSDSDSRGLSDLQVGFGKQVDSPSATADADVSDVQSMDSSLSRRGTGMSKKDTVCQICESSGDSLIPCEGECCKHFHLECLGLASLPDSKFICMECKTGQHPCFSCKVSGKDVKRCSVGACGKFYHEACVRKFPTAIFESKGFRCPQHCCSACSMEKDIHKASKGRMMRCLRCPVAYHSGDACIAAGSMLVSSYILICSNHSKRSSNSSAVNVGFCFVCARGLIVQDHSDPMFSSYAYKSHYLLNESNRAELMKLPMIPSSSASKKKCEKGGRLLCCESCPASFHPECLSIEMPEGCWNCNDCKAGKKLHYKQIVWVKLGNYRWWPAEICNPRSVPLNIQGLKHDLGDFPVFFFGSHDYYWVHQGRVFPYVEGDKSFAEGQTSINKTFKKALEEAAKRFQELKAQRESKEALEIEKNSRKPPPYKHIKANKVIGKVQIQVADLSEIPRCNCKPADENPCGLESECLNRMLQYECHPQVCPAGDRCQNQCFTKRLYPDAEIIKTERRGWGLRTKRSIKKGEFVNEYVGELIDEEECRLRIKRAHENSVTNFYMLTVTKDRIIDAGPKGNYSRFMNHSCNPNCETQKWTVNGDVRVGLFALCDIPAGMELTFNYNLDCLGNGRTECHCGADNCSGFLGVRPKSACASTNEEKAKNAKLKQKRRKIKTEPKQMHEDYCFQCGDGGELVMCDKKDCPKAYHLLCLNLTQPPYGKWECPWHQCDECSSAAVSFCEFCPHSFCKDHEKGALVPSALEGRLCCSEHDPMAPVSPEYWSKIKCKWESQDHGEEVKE
Procedure: as §1, §2, §3, §4, §5

ASH1L = target: T4, ASH1L (Homo sapiens, UniProt Q9NR48); assay: as above
T4 construct: purchased Structural Genomics Consortium (SGC Toronto) in-house methyltransferase panel
Procedure: as §1, §2, §3, §4, §5

[1] = 10µM compound, Exp1, Exp2, 10 µM
[2] = 1µM compound, Exp1, Exp2, read-out: Activity %
[3] = 10µM compound, Exp1, Exp2, read-out: Activity %
[4] = Exp1, Exp2, read-out: Activity %

## COc1cc(OC)cc(-c2noc(N3CCN(C)C4(CCN(c5ccccc5)CC4)C3)n2)c1 [MRK-740 -NC]
SETDB1; 1µM compound, Exp1, Exp2
  activity at 1 µM: 104%
SETDB1; 10µM compound, Exp1, Exp2
  activity at 10 µM: 101%
SETDB1; [1]
  Activity %: 86%
DOT1L; 1µM compound, Exp1, Exp2
  activity at 1 µM: 104%
DOT1L; 1µM compound, Exp1, Exp2, 1 µM
  Activity %: 102%
DOT1L; 10µM compound, Exp1, Exp2
  activity at 10 µM: 100%
DOT1L; [1]
  Activity %: 99%
NSD3; Exp1, Exp2
  activity at 1 µM: 97%
  activity at 10 µM: 95%
NSD3
  Activity %: 93%
ASH1L; 1µM compound, Exp1, Exp2
  activity at 1 µM: 100%
ASH1L; 10µM compound, Exp1, Exp2
  activity at 10 µM: 99%
ASH1L; [1]
  Activity %: 98%

## COc1cc(OC)cc(-c2noc(N3CCN(C)C4(CCN(c5ccnc(C)c5)CC4)C3)n2)c1 [MRK-740]
SETDB1; 1µM compound, Exp1, Exp2, 1 µM
  Activity %: 84%
SETDB1; [2]
  activity at 1 µM: 81%
SETDB1; [1]
  Activity %: 96%
SETDB1; [3]
  activity at 10 µM: 86%
DOT1L; 1µM compound, Exp1, Exp2, 1 µM
  Activity %: 100%
DOT1L; [2]
  activity at 1 µM: 98%
DOT1L; [3]
  activity at 10 µM: 97%
NSD3; [4]
  activity at 1 µM: 89%
  activity at 10 µM: 95%
NSD3
  Activity %: 99%
ASH1L; 1µM compound, Exp1, Exp2, 1 µM
  Activity %: 102%
ASH1L; [2]
  activity at 1 µM: 113%
ASH1L; [3]
  activity at 10 µM: 93%
